The values below are quoted from earlier work in US7923560B2, “Delivery of immune response modifier compounds” (3M Innovative Properties Company, priority 2003, dated 2011).

Each structure is given as a SMILES string.

The conditions of data set [1]: delivered systemically, compared to imiquimod.
In data set [2] the target is T1, TLR 7 (Homo sapiens, UniProt Q9NYK1).
T1 construct: expressed in transfected cells
T1 sequence (Q9NYK1 27-1049): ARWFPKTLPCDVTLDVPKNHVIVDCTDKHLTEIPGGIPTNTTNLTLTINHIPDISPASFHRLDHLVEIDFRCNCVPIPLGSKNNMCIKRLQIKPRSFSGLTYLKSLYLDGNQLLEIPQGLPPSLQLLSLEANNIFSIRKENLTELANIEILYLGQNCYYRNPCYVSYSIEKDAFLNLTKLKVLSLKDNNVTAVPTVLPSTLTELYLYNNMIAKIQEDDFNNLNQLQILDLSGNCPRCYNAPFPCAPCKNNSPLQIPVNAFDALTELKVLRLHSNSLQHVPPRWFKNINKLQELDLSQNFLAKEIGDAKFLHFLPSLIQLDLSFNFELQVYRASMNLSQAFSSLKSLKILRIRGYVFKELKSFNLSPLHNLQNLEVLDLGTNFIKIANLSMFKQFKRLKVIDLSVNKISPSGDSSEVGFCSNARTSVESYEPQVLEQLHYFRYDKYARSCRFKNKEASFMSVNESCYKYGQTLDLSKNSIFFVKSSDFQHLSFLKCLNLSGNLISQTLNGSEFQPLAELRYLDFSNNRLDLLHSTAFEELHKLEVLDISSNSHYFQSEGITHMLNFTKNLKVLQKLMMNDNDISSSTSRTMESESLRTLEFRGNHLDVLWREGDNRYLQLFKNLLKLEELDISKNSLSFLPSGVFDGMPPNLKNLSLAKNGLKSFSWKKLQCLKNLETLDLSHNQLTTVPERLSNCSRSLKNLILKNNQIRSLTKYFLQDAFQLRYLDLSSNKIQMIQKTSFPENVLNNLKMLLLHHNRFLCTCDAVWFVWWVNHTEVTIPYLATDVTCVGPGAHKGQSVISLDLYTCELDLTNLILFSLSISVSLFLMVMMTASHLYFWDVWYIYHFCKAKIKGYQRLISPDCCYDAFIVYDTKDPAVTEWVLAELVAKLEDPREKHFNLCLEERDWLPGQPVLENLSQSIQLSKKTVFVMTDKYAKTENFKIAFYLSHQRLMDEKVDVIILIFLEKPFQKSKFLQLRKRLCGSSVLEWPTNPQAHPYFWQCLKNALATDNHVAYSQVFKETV

The target in data set [3] is T2, TLR 8 (Homo sapiens, UniProt Q9NR97).
T2 construct: expressed in transfected cells
T2 sequence (Q9NR97 27-1041): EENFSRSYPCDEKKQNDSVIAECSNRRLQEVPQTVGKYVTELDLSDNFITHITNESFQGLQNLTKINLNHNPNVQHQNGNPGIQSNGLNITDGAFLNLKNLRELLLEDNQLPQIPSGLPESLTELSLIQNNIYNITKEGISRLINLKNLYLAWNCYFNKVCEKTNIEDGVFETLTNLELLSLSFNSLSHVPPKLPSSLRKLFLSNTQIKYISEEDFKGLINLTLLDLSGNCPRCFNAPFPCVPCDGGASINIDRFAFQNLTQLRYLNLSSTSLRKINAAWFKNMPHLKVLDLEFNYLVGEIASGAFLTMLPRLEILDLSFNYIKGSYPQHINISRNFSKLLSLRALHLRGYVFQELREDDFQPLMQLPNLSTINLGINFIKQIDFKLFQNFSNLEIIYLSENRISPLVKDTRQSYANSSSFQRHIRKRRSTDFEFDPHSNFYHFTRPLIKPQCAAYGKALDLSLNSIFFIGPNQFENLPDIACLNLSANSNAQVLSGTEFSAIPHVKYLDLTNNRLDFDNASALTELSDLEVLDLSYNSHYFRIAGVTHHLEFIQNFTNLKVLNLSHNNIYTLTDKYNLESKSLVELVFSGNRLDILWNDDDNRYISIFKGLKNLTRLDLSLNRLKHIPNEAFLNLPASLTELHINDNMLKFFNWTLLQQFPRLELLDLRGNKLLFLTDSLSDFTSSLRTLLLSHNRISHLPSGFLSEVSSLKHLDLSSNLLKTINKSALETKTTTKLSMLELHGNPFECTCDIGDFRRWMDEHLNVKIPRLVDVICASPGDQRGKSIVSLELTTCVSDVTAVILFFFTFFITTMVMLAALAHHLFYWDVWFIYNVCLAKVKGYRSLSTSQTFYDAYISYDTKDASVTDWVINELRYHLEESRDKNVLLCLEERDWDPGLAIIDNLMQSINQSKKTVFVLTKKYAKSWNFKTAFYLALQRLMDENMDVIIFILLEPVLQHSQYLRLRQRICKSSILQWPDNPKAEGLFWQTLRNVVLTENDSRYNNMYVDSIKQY

Turning to `CC(C)(O)Cn1cnc2c(N)nc3ccccc3c21` [4-amino-α,α-dimethyl-1H-imidazo[4,5-c]quinoline-1-ethanol], in data set [1], the CNS effect entry is listed as “much lower CNS effect”. Further, the “TLR 7 agonist activity” value in data set [2] is “predominantly a TLR 7 agonist”. Moreover, in data set [3], the “TLR 8 agonist activity” value is given as “not a substantial TLR 8 agonist”.
On to `CCOCc1nc2c(N)nc3c(c2n1CC(C)(C)O)CCCC3` [4-amino-2-(ethoxymethyl)-α,α-dimethyl-6,7,8,9-tetrahydro-1H-imidazo[4,5-c]quinoline-1-ethanol], for which, in data set [2], the “TLR 7 agonist activity” value is “a TLR 7 and TLR 8 agonist”. The “TLR 8 agonist activity” value in data set [3] was “a TLR 7 and TLR 8 agonist”.
With `CCOCc1nc2c(N)nc3ccccc3c2n1CC(C)(C)O` [Resiquimod, 4-amino-2-ethoxymethyl-α,α-dimethyl-1H-imidazo[4,5-c]quinoline-1-ethanol], the “TLR 7 agonist activity” value in data set [2] is “combination TLR 7 and TLR 8 agonist”. Further, the “TLR 8 agonist activity” value in data set [3] is “combination TLR 7 and TLR 8 agonist”.
